Patent US20120202877A1 (priority 2009, published 2012)

The compounds below were run on A/Paris/1170/2007 (H1N1, Y274) (assay: microbe, parasite or virus in culture). Settings: Influenza A virus, H1N1, 72 h, read-out: EC50, 50% reduction of the average plaque diameter.
Assay type: cell-based
In the case of `CC(=O)NC1C(O)C(CC=Cc2ccc(C)cc2)=C(C(=O)O)OC1C(O)C(O)CO` (stereo not drawn) [Compound 9d], the EC50 is reported as 40 µM.
With `C=CCC1=C(C(=O)O)O[C@@H]([C@H](O)[C@H](O)CO)[C@H](NC(C)=O)[C@H]1O` [Compound 7, 5-Acetamido-2,6-anhydro-3,5-dideoxy-3-C-(prop-2′-enyl)-D-glycero-D-galacto-non-2-en-onic acid] the EC50 was 2200 µM.
Compound `CC(=O)N[C@H]1[C@H]([C@H](O)[C@H](O)CO)OC(C(=O)O)=C[C@@H]1O` [Neu5Ac2en, reference compound] has an EC50 of 8 µM.
